Literature values in patent publication US8986714B2, “Formulations, methods and procedures for reducing or preventing the development, or the risk of development, of neuropathology as a result of trauma” (Sapna Life Sciences Corporation, priority 2013, dated 2015).

Legend:
[1] = system: postherpetic neuralgia; conditions: combined with valacyclovir; six months later
[2] = system: immature mouse brain ischemia; conditions: treatment of acute seizures; measured four weeks later
[3] = system: chronic post-surgical pain; conditions: perioperative administration; at two months or more after various types of surgery
[4] = system: spinal cord ischemia; conditions: rabbits
[5] = system: spinal cord compression; conditions: in vivo
[6] = system: amyotrophic lateral sclerosis
[7] = system: chronic spinal cord injury; conditions: stable chronic spinal cord injury patients
[8] = system: chronic spinal cord injury; conditions: chronic spinal cord injury patients, first two weeks
[9] = system: rat model of neuropathic pain
[10] = system: cat spinal dorsal horn neurons; conditions: noxious cutaneous stimulation and substance P
[11] = system: partial sciatic nerve ligation; conditions: compared to controls
[12] = system: peripheral nerve crush injury; conditions: facial nerve and sciatic nerve injury models
[13] = system: traumatic brain injury; conditions: approximately 80 patients treated within eight hours after traumatic brain injury
[14] = system: migraine attacks; conditions: human, in vivo
[15] = system: chemotherapy-induced nausea and vomiting; conditions: in conjunction with another antiemetic drug

NCC1(CC(=O)O)CCCCC1 [gabapentin]
rate of postherpetic neuralgia [1]: reduced
brain atrophy [2]: beneficial effects on brain atrophy
incidence of chronic post-surgical pain [3]: reducing the incidence of chronic post-surgical pain
outcomes of neuropathology, spinal cord ischemia [4]: preventive effects
outcomes of neuropathology, spinal cord compression [5]: preventive effects

O=C([O-])[O-].[Li+].[Li+] [lithium carbonate]
mortality ([6]; 22 patients, over 15 months): prevented death of 22 patients
motor deterioration ([6]; 22 patients, over 15 months): only minimal motor deterioration
plasma levels ([6]; daily oral doses): 400 to 800 µM
effect on neurological symptoms [7]: without effect on neurological symptoms
tolerability [8]: well tolerated over the first two weeks

COc1ccccc1CN[C@H]1C2CCN(CC2)[C@H]1C(c1ccccc1)c1ccccc1 [CP-96,345]
recovery from peripheral nerve injury ([9]; animal model): promotes the recovery from peripheral nerve injury
responses of spinal dorsal horn neurons [10]: blocks responses of cat spinal dorsal horn neurons to noxious cutaneous stimulation and to substance P

[Cl-].[Li+] [lithium chloride]
nociceptive scores in response to tactile and thermal stimuli [11]: reduced the nociceptive scores
expression of myelin genes [12]: stimulate the expression of myelin genes
functional recovery [12]: accelerate functional recovery
myelin structure [12]: restore myelin structure

CC(=O)[C@H]1CC[C@H]2[C@@H]3CCC4=CC(=O)CC[C@]4(C)[C@H]3CC[C@]12C [progesterone]
neurological outcomes [13]: improved neurological outcomes
development of symptoms of peripheral nerve injury ([9]; early administration, intraperitoneally): prevents the development of symptoms of peripheral nerve injury
tactile hypersensitivity, late treatment ([9]; given for 11 days, starting on day 20, versus control group): no difference between this experimental group and the control group
tactile hypersensitivity by 30 days ([9]; started one hour after model induction, daily for the subsequent 10 days): no tactile hypersensitivity
persistence of effect after treatment ended on day 10 ([9]; study period ended at day 85): persisted to the end of the study period

COc1ccccc1[C@H](C)C(=O)N1C[C@@H]2[C@H](C1)C(c1ccccc1)(c1ccccc1)CC[C@@]2(O)c1ccccc1OC [RPR100893]
treatment of migraine attacks [14]: not effective

C[C@@H](O[C@H]1OCCN(Cc2n[nH]c(=O)[nH]2)[C@H]1c1ccc(F)cc1)c1cc(C(F)(F)F)cc(C(F)(F)F)c1 [aprepitant]
acute effects on chemotherapy-induced nausea and vomiting [15]: proved to be effective when administered in conjunction with another antiemetic drug
